Reference: patent publication US9855265B2, “Methods for treating cancer with TrkA receptor tyrosine kinase antagonists” (VM Oncology LLC, priority 2014, dated 2018)

What was measured:
[1] = test system: PANC-1 subcutaneous human pancreatic cancer xenografts; experiment: PANC-1 Subcutaneous Human Pancreatic Cancer Xenograft Mouse Model
Procedure: Temperature: 22±3° C. Humidity: 50±20%. Light cycle: 12 hours light and 12 hours dark. Cages: Polycarbonate cages of 300 mm×180 mm×150 mm embedded with the soft wood material were used. The bedding was changed twice a week. Diet: Animals had free access to a certified commercial laboratory diet. Concentrations of contaminants in the diet are routinely analyzed by the manufacturers to ensure the contaminants are below their allowable maximum and thus would not affect the tumor growth.
Water: Animals had free access to sterile drinking water. Cage identification: The identification labels for each cage contained the following information: number of animals, sex, strain, date received, treatment, group number and the starting date of the treatment. Briefly, PANC-1 cell line was originally purchased from the ATCC (CRL-1469) and the PANC-1 primary cell line was derived from the PANC-1 subcutaneously xenograft tumors. The PANC-1 primary cells were maintained in vitro as monolayer culture in DMEM medium supplemented with 10% heat inactivated fetal bovine serum, 100 U/ml penicillin and 100 μg/ml streptomycin and L-glutamine (2 mM) at 37° C. in an atmosphere of 5% CO2 air. The cells growing in exponential phase were harvested and counted for tumor inoculation.
Tumor Cell Inoculation and Randomization. Each animal was inoculated subcutaneously on the right flank with the PANC-1 primary tumor cells (5×10^6/animal) in 0.1 mL of PBS. Tumor development was allowed undisrupted until mean tumor volume reached approximately 85 mm^3. Animals were then randomized into 6 groups, with each group consisting of 8 animals. The test articles were administered to the tumor-bearing animals according to predetermined regimens. […] At the time of routine monitoring, the animals were checked for any effects of tumor growth on normal behavior such as mobility, food and water consumption (by looking only), body weight (BW) gain/loss (BW was measured twice weekly), eye/hair matting and any other abnormal effect. Death and observed clinical signs were recorded on the basis of the numbers of animals within each subset.
Tumor Measurement and the Endpoints: The major endpoint was to evaluate if the tumor growth could be inhibited. Tumor measurement was conducted twice weekly with a caliper and the tumor volume (mm3) is estimated using the formula: TV=a×b^2/2, where a and b are long and short diameters of a tumor, respectively. The tumor sizes were then used for T/C value and TGI (tumor growth inhibition), which are indicators of anti-tumor effectiveness. The T/C value (in percent) is an indication of antitumor effect. T and C are the mean volumes of the treated and control groups, respectively, on a given day. BW change, expressed as %, is calculated using the following formula: BW change (%)=(BW_DayX/BW_Day0)×100, where BW_DayX is BW on a given day, and BW_Day0 was BW on Day 0 (tumor inoculation).
Tumor Sample Collection: Two tumor samples from Group 1, 2 and 3, respectively; six tumor samples from Group 4; five tumor samples from Group 5 and 6, respectively, were snap frozen in liquid nitrogen and kept at −80° C. Total 22 tumor samples were collected.
Statistical Analyses: A one-way ANOVA was performed to compare tumor volumes among groups. All data were analyzed using the SPSS 17.0 software; p<0.05 was considered statistically significant.

[2] = test system: CCI rats, mechanical allodynia; details: single oral dose
Procedure: Chronic Constriction Injury (CCI) Model of Neuropathic Pain in Rats. […] Chronic constriction injury of the sciatic nerve was produced by tying four loose ligatures around the left sciatic nerve according to the method of Bennett and Xie. […] Calibrated von Frey filaments were used to determine the lowest mechanical (tactile) threshold required to evoke a brisk paw withdrawal reflex in the rat hindpaws. Rats were allowed to acclimatize in wire mesh cages for 15-20 min prior to von Frey testing. Assessment of paw withdrawal thresholds (PWTs) using von Frey filaments was undertaken prior to CCI-surgery (pre-surgery baseline on day 0). Before the drug dosing on day 14, the pre-dose baseline was recorded for each rat. […] Drug-naïve CCI-rats (n=4-6 per group) were used. The oral vehicle was 0.5% CMC-Na/0.1% Tween 80 in distilled water. The positive control gabapentin was dissolved in the vehicle and orally given at 100 mg/kg (by oral gavage). Test compound was suspended in the vehicle and orally given at 50 mg/kg and 100 mg/kg.

[3] = test system: carrageenan-induced pain in rats; experiment: Carrageenan Pain Model; format: in vivo, Sprague-Dawley rats; details: carrageenan rat model, 30 mg/kg, p.o.
Procedure: Carrageenan Pain Model The carrageenan model is a fast, reliable model used to assess the ability of analgesics to block inflammatory pain. The analgesic effects of test article combinations on pain generation are assayed using the carrageenan-induced pain model in rats. Adult male Sprague-Dawley rats are administered study drugs orally (vehicle, compounds of present disclosure) once daily for 2 days (day −2 and day −1) and 30 minutes prior to the carrageenan injection on day 0 (time=0). For the carrageenan injection, animals are lightly anesthetized and 0.1 ml of 2% carrageenan is injected into the plantar surface of the right hind paw. The positive control indomethacin (30 mg/kg, p.o.) is administered orally immediately before the carrageenan injection. Paw volumes (right and left) are measured using a Plethysmometer before drug administration on day −2 and serve as a baseline measurement. The paw volumes are measured again two hours post carrageenan injection. The degree of mechanical allodynia is measured by a blinded observer using Von Frey filaments applied to the plantar surface of the hind paws in an increasing numerical order. Each filament increases the force applied on the paw. The filaments are applied until animal paw withdrawal is achieved. […] Results are expressed as mean change from baseline across five timepoints post carrageenan injection.

## Nc1ccn([C@@H]2O[C@H](CO)[C@@H](O)C2(F)F)c(=O)n1 [Gemcitabine, gemcitabine]
[1]; gemcitabine 10 mg/kg (alone or with Compound-12, see label)
  TGI (%, D18): 3%
[1]; gemcitabine 20 mg/kg (alone or with Compound-12, see label)
  TGI (%, D18): 48%
[1]; Day 7, gemcitabine 10 mg/kg (alone or with Compound-12, see label)
  Tumor volume (Mean ± SEM): 83 ± 4 mm^3
[1]; Day 7, gemcitabine 20 mg/kg (alone or with Compound-12, see label)
  Tumor volume (Mean ± SEM): 83 ± 3 mm^3
[1]; Day 11, gemcitabine 10 mg/kg (alone or with Compound-12, see label)
  Tumor volume (Mean ± SEM): 142 ± 12 mm^3
[1]; Day 11, gemcitabine 20 mg/kg (alone or with Compound-12, see label)
  Tumor volume (Mean ± SEM): 109 ± 8 mm^3
[1]; Day 14, gemcitabine 20 mg/kg (alone or with Compound-12, see label)
  Tumor volume (Mean ± SEM): 138 ± 9 mm^3
[1]; Day 18, gemcitabine 10 mg/kg (alone or with Compound-12, see label)
  Tumor volume (Mean ± SEM): 346 ± 21 mm^3
[1]; Day 19, gemcitabine 10 mg/kg (alone or with Compound-12, see label)
  Tumor volume (Mean ± SEM): 374 ± 19 mm^3
[1]; Day 19, gemcitabine 20 mg/kg (alone or with Compound-12, see label)
  Tumor volume (Mean ± SEM): 216 ± 18 mm^3

## NCC1(CC(=O)O)CCCCC1 [gabapentin, reference compound]
[2]
  side effects observed in dosed CCI-rats: drowsiness or motor incoordination

## COc1ccc2c(c1)c(CC(=O)O)c(C)n2C(=O)c1ccc(Cl)cc1 [indomethacin, reference compound]
[3]
  analgesic effect: about 100%
